Measurements from PMC4715021, “^177Lu-labelled macrocyclic bisphosphonates for targeting bone metastasis in cancer treatment” (EJNMMI Research, 2016).
“And” between values parts separate entries of the source, which are not always exact repeats. Equal values may be shown once.

Experiments:
[1] = Metabolite analysis and in vivo stability, arterial blood and urine samples; parameters: species or system Wistar rats
Source text: (§1) The experiments were realized corresponding to the German animal welfare regulations and institutional guidelines and with the permission of the local animal research committee at the Landesdirektion, Dresden. All experimental procedures are following the guidelines of the European Convention for the Protection of Vertebrate Animals used for Experimental and other Scientific Purposes (ETS No. 123). Male Wistar rats weighing 157.69 ± 17.10 g (mean ± SD, N = 35) were purchased from Unilever (HsdCpb:WU, Harlan Winkelmann, Borchen, Germany). Anesthetization was initiated and maintained by desflurane, and animals were put in the supine position and placed on a heating pad to maintain body temperature. A needle catheter was used for administration of the tracers in the tail vein. A second catheter was introduced into the right femoral artery for the extraction of blood samples for metabolite analysis, which was routinely done during SPECT/CT measurements.
Arterial blood plasma samples were taken during SPECT/CT examinations after 1, 3, 5, 10, 20, 30, 60, and 120 min. p.i., and the in vivo metabolism of [^177Lu]BPAMD, [^177Lu]BPAPD, [^177Lu]BPPED, [^177Lu]NO2AP^BP, [^177Lu]DOTA(M^BP)2, and [^177Lu]DO2A(P^BP)2 was analyzed. Plasma was separated by centrifugation (3 min, 11,000×g) followed by precipitation of the plasma proteins with ice-cold methanol (1.5 parts per 1 part plasma) and centrifugation (3 min, 11,000×g). The supernatants were analyzed by radio-TLC and HPLC using the abovementioned methods for quality control. Additionally, urine samples were treated in the same way prior radio-TLC and radio-HPLC analysis.

[2] = Ex vivo biodistribution of 177Lu-complexes in Wistar rats; details: for Biodistribution of radioactivity, Adipose tissue / Biodistribution of radioactivity, Adrenal gland / Biodistribution of radioactivity, Blood / Biodistribution of radioactivity, Brain / Biodistribution of radioactivity, Femur / Biodistribution of radioactivity, Harderian gland / Biodistribution of radioactivity, Heart / Biodistribution of radioactivity, Kidneys / Biodistribution of radioactivity, Liver / Biodistribution of radioactivity, Lung / Biodistribution of radioactivity, Muscle / Biodistribution of radioactivity, Pancreas / Biodistribution of radioactivity, Spleen / Biodistribution of radioactivity, Testes / Biodistribution of radioactivity, Thymus: i.v.
Source text: as §1
The male Wistar rats received a short-term anesthetization by desflurane inhalation. Mean activities of 2.36 ± 0.27 MBq/kg of the ^177Lu-labelled tracers in isotonic saline were injected in a volume of 0.5 mL in the tail vein, with the following specific details: [^177Lu]citrate: 2.56 ± 0.07 MBq/kg, 128.58 body weight (BW, g), n = 4 (g); [^177Lu]BPAMD: 2.33 ± 0.11 MBq/kg, 159.41 BW (g), n = 4 (g); [^177Lu]BPAPD: 2.58 ± 0.24 MBq/kg, 156.38 BW (g), n = 4 (g); [^177Lu]BPPED: 2.27 ± 0.25 MBq/kg, 153.43 BW (g), n = 4 (g); [^177Lu]NO2AP^BP: 2.52 ± 0.25 MBq/kg, 173.82 BW (g), n = 4 (g); [^177Lu]DOTA(M^BP)2: 1.80 ± 0.10 MBq/kg, 181.64 BW (g), n = 4 (g); [^177Lu]DO2A(P^BP)2: 2.46 ± 0.15 MBq/kg, 150.60 BW (g), n = 4 (g). The compounds [^177Lu]DOTA(M^BP)2, [^177Lu]BPPED, and [^177Lu]BPAMD were further chosen for a biodistribution study after 8 days p.i. A mean activity of 19.0 ± 2.5 MBq/kg was injected. Animals were sacrificed after 5 min, 60 min, and 8 days p.i. Organs of interest were excised rapidly and weighed, and the ^177Lu activity was determined with a Wallac WIZARD automatic gamma counter (PerkinElmer, Germany) and decay corrected. The distribution data are expressed in %ID or are normalized to the BW as standard uptake value (SUV), which was calculated with the formula: SUV = (activity per g tissue)/(injected activity) × BW. The skeleton weight was calculated using the following: skeleton weight = 9.66 + 0.0355 × BW, and the total activities associated with the skeleton were calculated by using the activity concentration in the femur and the total skeleton weight.

[3] = 5 min p.i., mean of four animals
[4] = 60 min p.i., mean of four animals
[5] = 8 days p.i., mean for five animals

O=C(O)CN1CCN(CC(=O)O)CCN(CC(=O)NC(P(=O)(O)O)P(=O)(O)O)CCN(CC(=O)O)CC1 [[^177Lu]BPAMD, metal not drawn]
Blood half-life of the slow component (t1/2(β)) ([1]; arterial blood, single intravenous injection): 23.3 min | Metabolization in blood samples (radio-HPLC and TLC) ([1]; within a period of 120 min): no evidence of any metabolization | Ratio Bone/Adipose tissue ([2]; 5 min p.i.): 8.0 | Ratio Bone/Adrenal gland ([2]; 5 min p.i.): 8.4 | Ratio Bone/Blood ([2]; 5 min p.i.): 3.7 | Ratio Bone/Brain ([2]; 5 min p.i.): 83.9 | Ratio Bone/Harderian gland ([2]; 5 min p.i.): 9.3 | Ratio Bone/Heart ([2]; 5 min p.i.): 9.3 | Ratio Bone/Kidneys ([2]; 5 min p.i.): 0.7 | Ratio Bone/Liver ([2]; 5 min p.i.): 12.9 | Ratio Bone/Lung ([2]; 5 min p.i.): 5.5 | Ratio Bone/Muscle ([2]; 5 min p.i.): 17.7 | Ratio Bone/Pancreas ([2]; 5 min p.i.): 10.8 | Ratio Bone/Spleen ([2]; 5 min p.i.): 9.1 | Ratio Bone/Testes ([2]; 5 min p.i.): 13.4 | Ratio Bone/Thymus ([2]; 5 min p.i.): 11.6 | Biodistribution of radioactivity, Adipose tissue [2, 3]: 0.42 SUV | Biodistribution of radioactivity, Adrenal gland [2, 3]: 0.40 SUV | Biodistribution of radioactivity, Blood [2, 3]: 0.90 SUV | Biodistribution of radioactivity, Brain [2, 3]: 0.04 SUV | Biodistribution of radioactivity, Femur [2, 3]: 3.36 SUV | Biodistribution of radioactivity, Harderian gland [2, 3]: 0.36 SUV | Biodistribution of radioactivity, Heart [2, 3]: 0.36 SUV | Biodistribution of radioactivity, Kidneys [2, 3]: 4.53 SUV | Biodistribution of radioactivity, Liver [2, 3]: 0.26 SUV | Biodistribution of radioactivity, Lung [2, 3]: 0.61 SUV | Biodistribution of radioactivity, Muscle [2, 3]: 0.19 SUV | Biodistribution of radioactivity, Pancreas [2, 3]: 0.31 SUV | Biodistribution of radioactivity, Spleen [2, 3]: 0.37 SUV | Biodistribution of radioactivity, Testes [2, 3]: 0.25 SUV | Biodistribution of radioactivity, Thymus [2, 3]: 0.29 SUV | Ratio Bone/Adipose tissue ([2]; 60 min p.i.): 134.5 | Ratio Bone/Adrenal gland ([2]; 60 min p.i.): 109.6 | Ratio Bone/Blood ([2]; 60 min p.i.): 135.6 | Ratio Bone/Brain ([2]; 60 min p.i.): 613.4 | Ratio Bone/Harderian gland ([2]; 60 min p.i.): 118.8 | Ratio Bone/Heart ([2]; 60 min p.i.): 210.1 | Ratio Bone/Kidneys ([2]; 60 min p.i.): 14.0 | Ratio Bone/Liver ([2]; 60 min p.i.): 127.5 | Ratio Bone/Lung ([2]; 60 min p.i.): 69.1 | Ratio Bone/Muscle ([2]; 60 min p.i.): 251.7 | Ratio Bone/Pancreas ([2]; 60 min p.i.): 136.4 | Ratio Bone/Spleen ([2]; 60 min p.i.): 68.2 | Ratio Bone/Testes ([2]; 60 min p.i.): 179.1 | Ratio Bone/Thymus ([2]; 60 min p.i.): 58.6 | Biodistribution of radioactivity, Adipose tissue [2, 4]: 0.04 SUV | Biodistribution of radioactivity, Adrenal gland [2, 4]: 0.04 SUV | Biodistribution of radioactivity, Blood [2, 4]: 0.04 ± 0.01 SUV and 0.04 SUV | Biodistribution of radioactivity, Brain [2, 4]: 0.01 SUV | Biodistribution of radioactivity, Femur [2, 4]: 4.84 ± 0.44 SUV and 4.84 SUV | Biodistribution of radioactivity, Harderian gland [2, 4]: 0.04 SUV | Biodistribution of radioactivity, Heart [2, 4]: 0.02 SUV | Biodistribution of radioactivity, Kidneys [2, 4]: 0.35 SUV | Biodistribution of radioactivity, Liver [2, 4]: 0.04 SUV | Biodistribution of radioactivity, Lung [2, 4]: 0.07 SUV | Biodistribution of radioactivity, Muscle [2, 4]: 0.02 SUV | Biodistribution of radioactivity, Pancreas [2, 4]: 0.04 SUV | Biodistribution of radioactivity, Spleen [2, 4]: 0.07 SUV | Biodistribution of radioactivity, Testes [2, 4]: 0.03 SUV | Biodistribution of radioactivity, Thymus [2, 4]: 0.08 SUV | Ratio Bone/Adipose tissue ([2]; 8 days p.i.): 1158 | Ratio Bone/Adrenal gland ([2]; 8 days p.i.): 547 | Ratio Bone/Blood ([2]; 8 days p.i.): 6703 | Ratio Bone/Brain ([2]; 8 days p.i.): 1405 | Ratio Bone/Harderian gland ([2]; 8 days p.i.): 48 | Ratio Bone/Heart ([2]; 8 days p.i.): 885 | Ratio Bone/Kidneys ([2]; 8 days p.i.): 66 | Ratio Bone/Liver ([2]; 8 days p.i.): 203 | Ratio Bone/Lung ([2]; 8 days p.i.): 634 | Ratio Bone/Muscle ([2]; 8 days p.i.): 37 | Ratio Bone/Pancreas ([2]; 8 days p.i.): 851 | Ratio Bone/Spleen ([2]; 8 days p.i.): 257 | Ratio Bone/Testes ([2]; 8 days p.i.): 1136 | Ratio Bone/Thymus ([2]; 8 days p.i.): 787 | Biodistribution of radioactivity, Adipose tissue [2, 5]: 0.004 SUV | Biodistribution of radioactivity, Adrenal gland [2, 5]: 0.009 SUV | Biodistribution of radioactivity, Blood [2, 5]: 0.001 SUV | Biodistribution of radioactivity, Brain [2, 5]: 0.004 SUV | Biodistribution of radioactivity, Femur [2, 5]: 5.039 SUV | Biodistribution of radioactivity, Harderian gland [2, 5]: 0.105 SUV | Biodistribution of radioactivity, Heart [2, 5]: 0.006 SUV | Biodistribution of radioactivity, Kidneys [2, 5]: 0.076 SUV | Biodistribution of radioactivity, Liver [2, 5]: 0.025 SUV | Biodistribution of radioactivity, Lung [2, 5]: 0.008 SUV | Biodistribution of radioactivity, Muscle [2, 5]: 0.136 SUV | Biodistribution of radioactivity, Pancreas [2, 5]: 0.006 SUV | Biodistribution of radioactivity, Spleen [2, 5]: 0.020 SUV | Biodistribution of radioactivity, Testes [2, 5]: 0.004 SUV | Biodistribution of radioactivity, Thymus [2, 5]: 0.006 SUV | Total skeletal retention ([2]; 8 days p.i., calculated from femur activity concentration and total skeleton weight): constant over 8 days | Total skeleton retention ([2]; after 60 min, calculated from femur activity concentration and total skeleton weight): 46.7 ± 5.3 %ID
